Source: patent US20210402016A1, “RADIOLABELED BOMBESIN-DERIVED COMPOUNDS FOR IN VIVO IMAGING OF GASTRIN-RELEASING PEPTIDE RECEPTOR (GRPR) AND TREATMENT OF GRPR-RELATED DISORDERS” (Provincial Health Services Authority, priority 2018, published 2021)
Read-outs that look alike come from different tables or passages of the source.

Experiment: Biodistribution in PC-3 tumor-bearing NRG mice (Example 1)
Type: in vivo
Settings: male, NRG (NOD.Cg-Rag1tm1Mom Il2rgtm1Wjl/SzJ), mouse, iv, 1.84 MBq, total radioactivity; for tissue uptake at 0.5 h: 30 min p.i.; for tissue uptake at 1 h: 60 min p.i.; for tissue uptake at 2 h: 120 min p.i.
Description: The mice were sacrificed by CO2 inhalation at 30 min, 1 h, and 2 h p.i. Blood was collected by cardiac puncture. Organs/tissues were harvested, rinsed with PBS, blotted dry, and weighed. The activity in tissues was assayed by gamma counter and expressed as the percentage injected dose per gram of tissue (% ID/g).

[1] = PC-3 tumor, read-out: Biodistribution PC-3 Tumor, Mean
[2] = adrenals, read-out: Biodistribution Adrenals, Mean
[3] = bone, read-out: Biodistribution Bone, Mean
[4] = brain, read-out: Biodistribution Brain, Mean
[5] = fat, read-out: Biodistribution Fat, Mean
[6] = intestine, read-out: Biodistribution Intestine, Mean
[7] = kidney, read-out: Biodistribution Kidney, Mean
[8] = liver, read-out: Biodistribution Liver, Mean
[9] = lung, read-out: Biodistribution Lung, Mean
[10] = muscle, read-out: Biodistribution Muscle, Mean
[11] = pancreas, read-out: Biodistribution Pancreas, Mean
[12] = seminal glands, read-out: Biodistribution Seminal glands, Mean
[13] = spleen, read-out: Biodistribution Spleen, Mean
[14] = testes, read-out: Biodistribution Testes, Mean
[15] = whole blood, read-out: Biodistribution Blood, Mean

**Q.** With `CC(C)C[C@@H](CN1CCC[C@H]1C(N)=O)NC(=O)[C@H](Cc1c[nH]cn1)NC(=O)CNC(=O)[C@@H](NC(=O)[C@H](C)NC(=O)[C@H](Cc1c[nH]c2ccccc12)NC(=O)[C@H](CCC(N)=O)NC(=O)[C@@H](Cc1ccccc1)NC(=O)COCC(=O)Nc1ccc(CNC(=O)CN2CCN(CC(=O)O)CCN(CC(=O)O)CCN(CC(=O)O)CC2)cc1)C(C)C` [^68Ga-ProBOMB1, metal not drawn] as the molecule, how does the tissue uptake at 0.5 h [1] read?
**A.** 4.62 %ID/g

**Q.** And the tissue uptake at 1 h [1]?
**A.** 8.17 %ID/g

**Q.** And the tissue uptake at 2 h [1]?
**A.** 8.31 %ID/g

**Q.** What about the tissue uptake at 0.5 h [2] of the same molecule?
**A.** 0.95 %ID/g

**Q.** What about the tissue uptake at 1 h [2] of the same molecule?
**A.** 0.65 %ID/g

**Q.** And the tissue uptake at 2 h [2]?
**A.** 1.23 %ID/g

**Q.** And the tissue uptake at 0.5 h [3]?
**A.** 0.22 %ID/g

**Q.** And the tissue uptake at 1 h [3]?
**A.** 0.26 %ID/g

**Q.** What about the tissue uptake at 2 h [3] of the same molecule?
**A.** 0.39 %ID/g

**Q.** What about the tissue uptake at 0.5 h [4] of the same molecule?
**A.** 0.02 %ID/g

**Q.** And the tissue uptake at 1 h [4]?
**A.** 0.02 %ID/g

**Q.** What about the tissue uptake at 2 h [4] of the same molecule?
**A.** 0.03 %ID/g

**Q.** And the tissue uptake at 0.5 h [5]?
**A.** 0.17 %ID/g

**Q.** And the tissue uptake at 1 h [5]?
**A.** 0.06 %ID/g

**Q.** What about the tissue uptake at 2 h [5] of the same molecule?
**A.** 0.07 %ID/g

**Q.** And the tissue uptake at 0.5 h [6]?
**A.** 2.63 %ID/g

**Q.** And the tissue uptake at 1 h [6]?
**A.** 2.47 %ID/g

**Q.** And the tissue uptake at 2 h [6]?
**A.** 1.68 %ID/g

**Q.** And the tissue uptake at 0.5 h [7]?
**A.** 2.83 %ID/g

**Q.** What about the tissue uptake at 1 h [7] of the same molecule?
**A.** 1.4 %ID/g

**Q.** And the tissue uptake at 2 h [7]?
**A.** 0.78 %ID/g

**Q.** What about the tissue uptake at 0.5 h [8] of the same molecule?
**A.** 1.93 %ID/g

**Q.** And the tissue uptake at 1 h [8]?
**A.** 1.21 %ID/g

**Q.** And the tissue uptake at 2 h [8]?
**A.** 0.75 %ID/g

**Q.** What about the tissue uptake at 0.5 h [9] of the same molecule?
**A.** 0.54 %ID/g

**Q.** What about the tissue uptake at 1 h [9] of the same molecule?
**A.** 0.35 %ID/g

**Q.** And the tissue uptake at 2 h [9]?
**A.** 0.25 %ID/g

**Q.** And the tissue uptake at 0.5 h [10]?
**A.** 0.36 %ID/g

**Q.** What about the tissue uptake at 1 h [10] of the same molecule?
**A.** 0.09 %ID/g

**Q.** What about the tissue uptake at 2 h [10] of the same molecule?
**A.** 0.08 %ID/g

**Q.** What about the tissue uptake at 0.5 h [11] of the same molecule?
**A.** 10.3 %ID/g

**Q.** And the tissue uptake at 1 h [11]?
**A.** 4.68 %ID/g

**Q.** What about the tissue uptake at 2 h [11] of the same molecule?
**A.** 1.55 %ID/g

**Q.** What about the tissue uptake at 0.5 h [12] of the same molecule?
**A.** 0.17 %ID/g

**Q.** What about the tissue uptake at 1 h [12] of the same molecule?
**A.** 1.08 %ID/g

**Q.** And the tissue uptake at 2 h [12]?
**A.** 0.43 %ID/g

**Q.** What about the tissue uptake at 0.5 h [13] of the same molecule?
**A.** 0.5 %ID/g

**Q.** What about the tissue uptake at 1 h [13] of the same molecule?
**A.** 0.44 %ID/g

**Q.** What about the tissue uptake at 2 h [13] of the same molecule?
**A.** 0.31 %ID/g

**Q.** What about the tissue uptake at 0.5 h [14] of the same molecule?
**A.** 0.31 %ID/g

**Q.** What about the tissue uptake at 1 h [14] of the same molecule?
**A.** 0.11 %ID/g

**Q.** And the tissue uptake at 2 h [14]?
**A.** 0.09 %ID/g

**Q.** What about the tissue uptake at 0.5 h [15] of the same molecule?
**A.** 1.06 %ID/g

**Q.** What about the tissue uptake at 1 h [15] of the same molecule?
**A.** 0.4 %ID/g

**Q.** What about the tissue uptake at 2 h [15] of the same molecule?
**A.** 0.13 %ID/g
